Laboratory results: BindingDB's records for doi:10.1080/14756360310001650200 (Universit&Eacute, 2004)

target: T1, Chymase (Homo sapiens, UniProt P23946); assay: Enzyme Inhibition Assay
T1 sequence (P23946 whole entry): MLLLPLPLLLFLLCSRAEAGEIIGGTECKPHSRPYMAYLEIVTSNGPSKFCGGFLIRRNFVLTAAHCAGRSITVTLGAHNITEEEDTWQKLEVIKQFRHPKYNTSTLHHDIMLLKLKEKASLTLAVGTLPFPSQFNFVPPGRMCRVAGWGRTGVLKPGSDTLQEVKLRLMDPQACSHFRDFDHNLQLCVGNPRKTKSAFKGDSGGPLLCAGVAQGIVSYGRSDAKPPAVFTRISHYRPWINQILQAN
Excerpt: Enzyme inhibitory activity using recombinant human chymase.

| SMILES | IC50 |
| --- | --- |
| O=c1n2c(c(O)n1S(=O)(=O)c1ccc(Cl)c(Cl)c1)Cc1ccccc1-2 [Tetrahydroisoquinoline hydantoin derivative, 3c] | 374 µM |
| O=c1n2c(c(O)n1S(=O)(=O)c1ccc3ccccc3c1)Cc1ccccc1-2 [Tetrahydroisoquinoline hydantoin derivative, 3d] | 86.8 µM |
| Cc1ccc(S(=O)(=O)n2c(O)c3n(c2=O)-c2ccccc2C3)cc1 [Tetrahydroisoquinoline hydantoin derivative, 3a] | 172 µM |
| Cc1ccc(S(=O)(=O)n2c(O)c3n(c2=O)-c2ccccc2C3)cc1C [Tetrahydroisoquinoline hydantoin derivative, 3b] | 206 µM |
| Cc1ccc(S(=O)(=O)n2c(O)c3n(c2=O)Cc2ccccc2C3)cc1C [Tetrahydroisoquinoline hydantoin derivative, 5b] | 42.8 µM |
| Cc1ccc(S(=O)(=O)N2C(=O)[C@@H]3Cc4ccccc4CN3C2=O)cc1 [Tetrahydroisoquinoline hydantoin derivative, 5a] | 49 µM |
| O=c1n2c(c(O)n1S(=O)(=O)c1ccc3ccccc3c1)Cc1ccccc1C2 [Tetrahydroisoquinoline hydantoin derivative, 5d] | 17.5 µM |
